Experimental findings from patent US9023882B2, “5-membered nitrogen containing heterocyclic derivatives and pharmaceutical compositions comprising the same” (Kissei Pharmaceutical Co., Ltd., priority 2007, dated 2015) are described below.

Structures are written as SMILES.

Chain of Xanthine oxidase (from bovine milk, Sigma) (P80457 whole entry): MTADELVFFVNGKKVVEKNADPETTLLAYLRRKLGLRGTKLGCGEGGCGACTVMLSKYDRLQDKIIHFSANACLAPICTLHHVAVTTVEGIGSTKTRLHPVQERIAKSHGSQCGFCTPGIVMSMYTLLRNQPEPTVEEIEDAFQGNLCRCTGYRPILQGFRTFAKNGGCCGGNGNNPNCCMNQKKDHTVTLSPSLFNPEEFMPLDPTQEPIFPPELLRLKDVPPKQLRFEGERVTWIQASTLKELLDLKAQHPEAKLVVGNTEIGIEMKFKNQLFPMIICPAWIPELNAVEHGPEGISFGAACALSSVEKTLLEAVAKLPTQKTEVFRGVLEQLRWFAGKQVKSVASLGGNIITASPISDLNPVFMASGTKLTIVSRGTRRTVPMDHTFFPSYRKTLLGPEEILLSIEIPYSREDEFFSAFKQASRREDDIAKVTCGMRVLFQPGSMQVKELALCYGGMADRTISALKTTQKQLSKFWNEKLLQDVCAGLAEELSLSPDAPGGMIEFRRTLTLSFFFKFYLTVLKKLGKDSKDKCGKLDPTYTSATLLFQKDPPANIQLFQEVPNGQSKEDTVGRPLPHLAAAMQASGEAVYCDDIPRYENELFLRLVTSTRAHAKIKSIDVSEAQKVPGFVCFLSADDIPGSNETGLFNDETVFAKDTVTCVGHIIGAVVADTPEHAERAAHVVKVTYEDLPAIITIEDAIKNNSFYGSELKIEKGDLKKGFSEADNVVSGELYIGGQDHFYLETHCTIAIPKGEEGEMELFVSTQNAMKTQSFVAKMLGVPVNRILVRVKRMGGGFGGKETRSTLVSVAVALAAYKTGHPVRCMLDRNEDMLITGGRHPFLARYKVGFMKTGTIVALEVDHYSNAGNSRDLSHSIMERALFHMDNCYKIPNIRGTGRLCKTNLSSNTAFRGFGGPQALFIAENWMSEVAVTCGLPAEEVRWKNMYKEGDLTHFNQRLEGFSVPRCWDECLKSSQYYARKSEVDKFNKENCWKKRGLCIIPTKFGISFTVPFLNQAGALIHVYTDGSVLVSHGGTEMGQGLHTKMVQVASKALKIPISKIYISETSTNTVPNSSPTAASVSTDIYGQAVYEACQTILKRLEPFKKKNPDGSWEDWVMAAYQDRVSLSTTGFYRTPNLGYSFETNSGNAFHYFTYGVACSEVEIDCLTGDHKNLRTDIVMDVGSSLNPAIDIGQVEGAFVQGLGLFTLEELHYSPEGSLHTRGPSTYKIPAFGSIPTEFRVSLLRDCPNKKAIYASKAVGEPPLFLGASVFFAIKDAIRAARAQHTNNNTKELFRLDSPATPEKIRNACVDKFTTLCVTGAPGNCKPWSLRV

One experiment has as its target Xanthine oxidase (from bovine milk, Sigma) (Bos taurus (Bovine), UniProt P80457). Briefly: Xanthine oxidase inhibitory activity. The class given is biochemical. To be noted: 100 μM xanthine final, absorbance at 290 nm. The protocol:
(1) Preparation of Test Compounds
Test compounds were dissolved in DMSO (Wako) at 40 mM concentration and then diluted to intended concentrations with phosphate-buffered saline (PBS).
(2) Method for Measurement
Xanthine oxidase (from bovine milk, Sigma) was prepared with phosphate-buffered saline (PBS) at 0.02 units/mL, and then the solution was added to 96 well plates at 50 μL/well. In addition, test compounds diluted with PBS were added at 50 μL/well. Xanthine (Wako) at 200 μM prepared with PBS was added at 100 μL/well, and the reaction was conducted for 10 minutes at room temperature. Absorbance at 290 nm was measured using a microplate reader SpectraMax Plus 384 (Molecular device). The absorbance under a condition without xanthine is 0%, and control without test compounds is 100%. Fifty % inhibitory concentration of a test compound (IC50) was calculated (Tables 91 to 92). Ex. No in the table indicates Example number.
`N#Cc1cn(-c2cc(C(=O)O)ccn2)cc1-c1ccccc1Cl` [Example 364] yielded a half-maximal inhibitory concentration (IC50) of 22.7 nM. Compound `N#Cc1cn(-c2ccc(C(=O)O)c(O)c2)cc1-c1cccc(C(F)(F)F)c1` [Example 281] registered a concentration for half-maximal inhibition (IC50) of 41.2 nM. Against the preceding compound, the IC50 is about 1.8-fold higher. On the same count and under the same terms, with `N#Cc1cn(-c2ccc(C(=O)O)c(O)c2)cc1-c1ccccc1-c1ccccc1` [Example 328] the figure was 9.3 nM; with `Cc1ccc(-c2cn(-c3ccc(C(=O)O)c(O)c3)cc2C#N)cc1` [Example 317], 6.8 nM; with `N#Cc1cn(-c2cc(C(=O)O)ccn2)cc1C1=CCCCC1` [Example 370], 19.9 nM. In the case of `CCc1c(-c2ccccc2)c(C#N)cn1-c1ccc(C(=O)O)c(O)c1` [Example 327], the IC50 stood at 7.1 nM.

As to `Cc1ccccc1-c1cn(-c2ccc(C(=O)O)c(O)c2)cc1C#N` [Example 307], the IC50 worked out at 7.5 nM. On the same count and under the same terms, with `N#Cc1cn(-c2ccc(C(=O)O)c(O)c2)cc1-c1cc2ccccc2s1` [Example 289] the figure was 22.6 nM; with `COc1ccc2ccccc2c1-c1cn(-c2ccc(C(=O)O)c(O)c2)cc1C#N` [Example 286], 27.5 nM; with `CCCOc1cccc(-c2cn(-c3ccc(C(=O)O)c(O)c3)cc2C#N)c1` [Example 341], 10 nM. The compound `N#Cc1ccn(-c2ccc(C(=O)O)c(O)c2)n1` [Example 354] had an IC50 of 66.7 nM. Still for that read-out and setting: with `O=C(O)c1ccc(-n2cc(C(=O)O)c(C(F)(F)F)c2)cc1O` [Example 297] the figure was 18.9 nM; with `COc1ccc(-c2cn(-c3cc(C(=O)O)ccn3)cc2C#N)cc1` [Example 368], 13.3 nM; with `Cc1ccsc1-c1cn(-c2ccc(C(=O)O)c(O)c2)cc1C#N` [Example 311], 6.9 nM. `N#Cc1ccc(-c2cn(-c3ccc(C(=O)O)c(O)c3)cc2C#N)cc1` [Example 331]: it took 5.3 nM to reach half-maximal inhibition (IC50). Turning to `COc1ccc(-c2cn(-c3ccc(C(=O)O)c(O)c3)cc2C#N)cc1` [Example 316], the half-inhibitory concentration (IC50) came out at 9 nM. In the case of `COc1ccc(CCc2cn(-c3ccc(C(=O)O)c(O)c3)cc2C#N)cc1` [Example 296], it took 5.6 nM to reach half-maximal inhibition (IC50). On the same count and under the same terms, under `N#Cc1cn(-c2ccc(C(=O)O)c(O)c2)cc1-c1ccc(Cl)s1` [Example 313] stands 5.2 nM; under `N#Cc1cn(-c2ccc(C(=O)O)c(O)c2)cc1-c1cc2ccccc2o1` [Example 290], 27.6 nM; under `COc1cccc(-c2cn(-c3ccc(C(=O)O)c(O)c3)cc2C#N)c1` [Example 279], 8.4 nM. For the compound `N#Cc1cn(-c2ccc(C(=O)O)c(O)c2)cc1-c1ccc(O)cc1` [Example 339], the IC50 was 4.4 nM. `CSc1ccc(-c2cn(-c3ccc(C(=O)O)c(O)c3)cc2C#N)cc1` [Example 350] came in with an IC50 of 13.7 nM. This IC50 lies about 3.1-fold higher than the previous one. On the same count and under the same terms, with `N#Cc1cn(-c2ccc(C(=O)O)c(O)c2)cc1CCc1ccccc1` [Example 287] the figure was 5.8 nM; with `COc1ccc(-c2cn(-c3ccc(C(=O)O)c(O)c3)cc2C#N)c(F)c1` [Example 283], 6.2 nM.

Still in this experiment, the particulars now being: 0.02 units/mL, xanthine 200 μM, 10 minutes at room temperature, absorbance at 290 nm.
`CCCCCCCc1cn(-c2ccc(C(=O)O)cc2)cc1C#N` [Example 247] had an IC50 of 8.9 nM. This lies in the single-digit nanomolar range. On the same count and under the same terms, with `CCOCCOc1ccccc1-c1cn(-c2ccc(C(=O)O)cc2)cc1C#N` [Example 213] the figure was 16.8 nM; with `N#Cc1cn(-c2ccc(C(=O)O)cc2)cc1C(=O)N1CCOCC1` [Example 232], 26.9 nM; with `CCCCc1c(C#N)cn(-c2ccc(C(=O)O)cc2)c1C` [Example 2, 4-(3-Butyl-4-cyano-2-methylpyrrole-1-yl)benzoic acid], 17.1 nM. Compound `CN(Cc1ccccc1)C(=O)c1cn(-c2ccc(C(=O)O)cc2)cc1C#N` [Example 228] had an IC50 of 4.6 nM.

Take `N#Cc1cn(-c2ccc(C(=O)O)cc2)cc1-c1ccccc1OCc1ccsc1` [Example 176]: the concentration for half-maximal inhibition (IC50) was found to be 13.7 nM. The same measure, in the same setting: under `N#Cc1cn(-c2ccc(C(=O)O)cc2)cc1-c1ccccc1OCc1ccccc1C(F)(F)F` [Example 180] stands 255 nM; under `CCOCCOc1cccc(-c2cn(-c3ccc(C(=O)O)cc3)cc2C#N)c1` [Example 215], 6.7 nM. Regarding `N#Cc1cn(-c2ccc(C(=O)O)cc2)nc1OCc1ccccc1` [Example 7, 4-(3-Benzyloxy-4-cyanopyrazole-1-yl)benzoic acid], 5.8 nM corresponded to half-maximal inhibition (IC50). On the same count and under the same terms, with `COCCN(C)C(=O)c1cn(-c2ccc(C(=O)O)cc2)cc1C#N` [Example 230] the figure was 13 nM; with `Cc1ccc(-c2cn(-c3ccc(C(=O)O)c(O)c3)cc2C#N)cc1F` [Example 269], 23.4 nM. On the same count and under the same terms, with `N#Cc1cn(-c2ccc(C(=O)O)c(O)c2)cc1-c1ccc(F)cc1F` [Example 267] the figure was 11.6 nM; with `N#Cc1cn(-c2ccc(C(=O)O)cc2)cc1-c1ccc(C(=O)O)cc1` [Example 210], 5.1 nM.

With `COCOc1ccc(-c2cn(-c3ccc(C(=O)O)cc3)cc2C#N)cc1` [Example 145], the IC50 is 4.9 nM. Regarding `Cc1ccc(COc2ccccc2-c2cn(-c3ccc(C(=O)O)cc3)cc2C#N)cc1` [Example 169], the midpoint of inhibition, the IC50, lay at 56.8 nM. The same measure, in the same setting: under `CCCCCc1cn(-c2ccc(C(=O)O)cc2)cc1C#N` [Example 245] stands 2.8 nM; under `COc1ccc(-c2cn(-c3ccc(C(=O)O)c(O)c3)cc2C#N)cc1F` [Example 268], 13.3 nM.

In the case of `N#Cc1cn(-c2ccc(C(=O)O)cc2)cc1-c1ccccc1O` [Example 146], the IC50 is 4 nM.

The compound `N#Cc1cn(-c2ccc(C(=O)O)cc2)cc1-c1cccc2c1OC(F)(F)O2` [Example 254] yielded an IC50 of 6.9 nM. For the compound `N#Cc1cn(-c2ccc(C(=O)O)cc2)cc1-c1ccccc1OCc1cccc(F)c1` [Example 171], the IC50 was 39.8 nM. Consider `Cc1cccc(COc2ccccc2-c2cn(-c3ccc(C(=O)O)cc3)cc2C#N)c1` [Example 168], for which the half-maximal inhibitory concentration (IC50) came to 70 nM. In turn, `COCCOc1ccccc1-c1cn(-c2ccc(C(=O)O)c(O)c2)cc1C#N` [Example 15, 4-{3-Cyano-4-[2-(2-methoxyethoxy)phenyl]pyrrole-1-yl}-2-hydroxy benzoic acid] gave an IC50 of 13.9 nM. This IC50 lies about 5-fold lower than the previous one. Same read-out and setting: under `N#Cc1cn(-c2ccc(O)c(C(=O)O)c2)cc1-c1ccccc1` [Example 22, 5-(3-Cyano-4-phenylpyrrole-1-yl)-2-hydroxy-benzoic acid] stands 120 nM; under `N#Cc1cn(-c2ccc(C(=O)O)cc2)cc1-c1cccc(Oc2ccccc2)c1` [Example 165], 32.2 nM.

In turn, `N#Cc1cn(-c2ccc(C(=O)O)cc2)cc1-c1cccc(OCc2ccc(F)cc2)c1` [Example 191] gave a concentration for half-maximal inhibition (IC50) of 90.3 nM. With `N#Cc1cn(-c2ccc(C(=O)O)cc2)cc1-c1ccc(Oc2ccccc2)cc1` [Example 166], half-maximal inhibition (IC50) required 52.2 nM. This IC50 lies about 1.7-fold lower than the previous one.

As to `N#Cc1cn(-c2ccc(C(=O)O)cc2)cc1-c1cccc(OCc2cccs2)c1` [Example 173], 41.4 nM corresponded to half-maximal inhibition (IC50).

For the compound `CCOC(=O)c1cn(-c2ccc(C(=O)O)cc2)cc1C(F)(F)F` [Example 221], the IC50 amounted to 45.4 nM.

`N#Cc1cn(-c2ccc(C(=O)O)c(O)c2)cc1-c1cc(F)cc(F)c1` [Example 271] showed an IC50 of 15.1 nM. The compound `CN(C)/C=N/c1nn(-c2ccc(C(=O)O)cc2)cc1C#N` [Example 261] yielded an IC50 of 5.3 nM. `N#Cc1cn(-c2ccc(C(=O)O)cc2)cc1C(=O)N1CCCCC1` [Example 231] returned a concentration for half-maximal inhibition (IC50) of 7 nM. This IC50 and that of the compound before are within 1.5-fold of each other.

Compound `N#Cc1cn(-c2ccc(C(=O)O)cc2)cc1-c1cccc(OCCCCO)c1` [Example 200] displayed a half-maximal inhibitory concentration (IC50) of 5.9 nM. Compound `N#Cc1cn(-c2ccc(C(=O)O)c(O)c2)cc1-c1ccccc1O` [Example 12, 4-[3-Cyano-4-(2-hydroxyphenyl)pyrrole-1-yl]-2-hydroxy benzoic acid] came in with a concentration for half-maximal inhibition (IC50) of 5.5 nM. This IC50 and that of the compound before are within 1.5-fold of each other.

Consider `Cc1cccc(C)c1-c1cn(-c2ccc(C(=O)O)c(O)c2)cc1C#N` [Example 272], for which half-maximal inhibition (IC50) was put at 10.1 nM. This IC50 is about 1.8-fold higher than that of the compound before.

Compound `N#Cc1cn(-c2ccc(C(=O)O)cc2)cc1-c1ccc(OCC(=O)O)cc1` [Example 160] came in with an IC50 of 2.1 nM. Still for that read-out and setting: under `CNC(=O)c1cn(-c2ccc(C(=O)O)cc2)cc1C#N` [Example 225] stands 7.2 nM; under `N#Cc1cn(-c2ccc(C(=O)O)cc2)cc1COCc1ccccc1` [Example 248], 11.9 nM; under `N#Cc1cn(-c2ccc(C(=O)O)cc2)cc1-c1ccccc1OCc1ccccc1Cl` [Example 177], 54.4 nM.

Take `CCOc1cn(-c2ccc(C(=O)O)cc2)cc1C#N` [Example 257]: inhibition was half-maximal at 4.1 nM (IC50).

In the case of `N#Cc1cn(-c2ccc(C(=O)O)cc2)cc1CCc1ccccc1` [Example 207], half-maximal inhibition (IC50) was put at 3.8 nM. This IC50 and that of the compound before are within 1.5-fold of each other.

Turning to `N#Cc1cn(-c2ccc(C(=O)O)cc2)nc1NC(=O)c1ccccc1` [Example 262], the half-inhibitory concentration (IC50) came to 3.1 nM. For `N#Cc1nn(-c2ccc(C(=O)O)cc2)cc1-c1ccc2c(c1)OCO2` [Example 249], the half-inhibitory concentration (IC50) turned out to be 9.4 nM. Same read-out and setting: under `N#Cc1cn(-c2ccc(C(=O)O)cc2)cc1-c1ccccc1OCC(=O)O` [Example 158] stands 5.1 nM; under `N#Cc1cn(-c2ccc(C(=O)O)cc2)cc1-c1cccc(OCc2ccsc2)c1` [Example 174], 17.6 nM; under `N#Cc1cn(-c2ccc(C(=O)O)cc2)cc1-c1cccc(OCCOc2ccccc2)c1` [Example 216], 20.9 nM. The same measure, in the same setting: with `N#Cc1cn(-c2ccc(C(=O)O)c(F)c2)cc1-c1ccccc1` [Example 208] the figure was 5.2 nM. With `N#Cc1cn(-c2ccc(C(=O)O)cc2)cc1-c1ccccc1OCCCO` [Example 149], inhibition was half-maximal at 6 nM (IC50).

The compound `N#Cc1cn(-c2ccc(C(=O)O)cc2)cc1-c1cccc(OCc2cccc(F)c2)c1` [Example 190] returned a 50% inhibitory concentration (IC50) of 116 nM.
